Laboratory results from ChEMBL document CHEMBL5236616, “Chlorinated Naringenin Analogues as Potential Inhibitors of Transthyretin Amyloidogenesis” (J Med Chem, 2022).
≈ marks a conversion by molar mass, not a printed value. Calls of active or inactive are those of the source. The calls are words filed in the database; no cut-off is given here.

What was measured:
[1] = Drug concentration in rat plasma at 1.82 mg/kg, po; format: ADME, organism-based; conditions: in vivo
[2] = system: Transthyretin (Homo sapiens), P02766 [V50M]; assay: Binding affinity to TTR V30M mutant (unknown origin) expressed in Escherichia coli assessed as change in enthalpy by ITC assay
[3] = system: Transthyretin (Homo sapiens), P02766 [V50M]; assay: Binding affinity to TTR V30M mutant (unknown origin) expressed in Escherichia coli assessed as gibbs free energy change by ITC assay
Transthyretin = Transthyretin (Homo sapiens, UniProt P02766, V50M); assay: Binding affinity to TTR V30M mutant (unknown origin) expressed in Escherichia coli by ITC assay
[4] = system: Transthyretin (Homo sapiens), P02766 [V50M]; assay: Binding affinity to TTR V30M mutant (unknown origin) expressed in Escherichia coli assessed as change in entropy by ITC assay
[5] = system: Transthyretin (Homo sapiens), P02766 [V50M]; assay: Inhibition of acid mediated TTR V30M mutant aggregation (unknown origin) expressed in Escherichia coli preincubated for 30 mins followed by acid stimulation and measured after 96 hrs by fluorescence spectrophotometer analysis; conditions: time 96.5 hrs
[6] = molecular target: Transthyretin (Homo sapiens) (UniProt P02766); assay: Displacement of (E)-S-phenyl 3(4-hydroxy-3,5-dimethylstyryl)benzothioate from human plasma TTR at 20 uM incubated for 6 hrs by fluorescence based assay; format: cell-free
[7] = Ratio of drug concentration in Sprague-Dawley rat brain to plasma at 1 mg/kg, po after 8 hrs by LC-MS/MS analysis; format: ADME, organism-based
[8] = Permeability of compound at 10 uM after 4 hrs by LC-MS/MS based PAMPA; format: ADME; conditions: read-out: permeability
[9] = Drug concentration in Sprague-Dawley rat eye ball at 1 mg/kg, iv after 8 hrs by LC-MS/MS anlaysis; format: ADME, organism-based, Eyeball of camera-type eye; conditions: read-out: Ct
[10] = Drug concentration in Sprague-Dawley rat brain at 1 mg/kg, po after 8 hrs by LC-MS/MS anlaysis; format: ADME, organism-based; conditions: read-out: Ct
[11] = Aqueous solubility of compound at pH 1.2 incubated for 4 hrs; format: physicochemical; conditions: aqueous medium
[12] = Drug concentration in Sprague-Dawley rat brain at 1 mg/kg, iv after 8 hrs by LC-MS/MS anlaysis; format: ADME, organism-based; conditions: read-out: Ct
[13] = Plasma protein binding in rat assessed as unbound fraction at 1 uM incubated for 4 hrs by rapid equilibrium dialysis method; format: ADME, cell-free
[14] = Ratio of drug concentration in Sprague-Dawley rat eye ball to plasma at 1 mg/kg, po after 8 hrs by LC-MS/MS analysis; format: ADME, organism-based
[15] = Drug concentration in Sprague-Dawley rat plasma at 1 mg/kg, iv after 8 hrs by LC-MS/MS anlaysis; format: ADME, organism-based
[16] = Aqueous solubility of compound at pH 6.8 incubated for 4 hrs; format: physicochemical; conditions: aqueous medium
[17] = Ratio of drug concentration in Sprague-Dawley rat brain to plasma at 1 mg/kg, iv after 8 hrs by LC-MS/MS analysis; format: ADME, organism-based
[18] = Drug concentration in Sprague-Dawley rat plasma at 1 mg/kg, po after 8 hrs by LC-MS/MS anlaysis; format: ADME, organism-based
[19] = Ratio of drug concentration in Sprague-Dawley rat eye ball to plasma at 1 mg/kg, iv after 8 hrs by LC-MS/MS analysis; format: ADME, organism-based
[20] = Drug concentration in Sprague-Dawley rat eye ball at 1 mg/kg, po after 8 hrs by LC-MS/MS anlaysis; format: ADME, organism-based, Eyeball of camera-type eye; conditions: read-out: Ct

| SMILES | deltaH [2] [kcal/mol] | deltaG [3] [kcal/mol] | Kd (Transthyretin) [µM] | TdeltaS [4] [kcal/mol] | IC50 [5] [µM] | Activity [6] | also measured |
| --- | --- | --- | --- | --- | --- | --- | --- |
| O=C1C[C@@H](c2ccc(O)cc2)Oc2cc(O)cc(O)c21 [NARINGENIN] | -10.9 | -7.9 | 1.63 | 1.32 | 12 | – | concentration [1]: 1500 nM |
| O=C1CC(c2ccc(O)c(Cl)c2)Oc2cccc(O)c21 (stereo not given) | – | – | – | – | 7.2 | – | – |
| O=C1CC(c2ccc(O)c(Cl)c2)Oc2cc(O)cc(O)c21 (stereo not given) | -13.2 | -8.73 | 0.403 | 4.47 | 5.3 | Active | – |
| O=C1CC(c2cc(Cl)c(O)c(Cl)c2)Oc2cc(O)cc(O)c21 (stereo not given) | -16.7 | -10.7 | 0.016 | 6 | 3.7 | Active | Kp at 8 h [7]: 0.058; Papp at 4 h, 10 µM [8]: > 50 ×10⁻⁶ cm/s; concentration at 8 h [9]: 150 nM; concentration at 8 h [10]: 15.6 nM; solubility at 4 h [11]: 0.66 µM (≈ 0.225 µg/mL); concentration at 8 h [12]: 53.1 nM; Fu [13]: 0.081%; Kp at 8 h [14]: 0.139; concentration at 8 h [15]: 717 nM; solubility at 4 h [16]: 28.3 µM (≈ 9.65 µg/mL); Kp at 8 h [17]: 0.074; concentration at 8 h [18]: 267 nM; Kp at 8 h [19]: 0.209; concentration at 8 h [20]: 37.1 nM |
| O=C1CC(c2cc(Cl)c(O)c(Cl)c2)Oc2ccc(O)cc21 (stereo not given) | – | – | – | – | 4.3 | – | – |
| O=C1CC(c2ccc(O)c(Cl)c2)Oc2cc(O)ccc21 (stereo not given) | – | – | – | – | 6 | – | – |
| O=C1CC(c2cc(Cl)c(O)c(Cl)c2)Oc2cc(O)ccc21 (stereo not given) | -13.2 | -10.4 | 0.026 | 2.78 | 4.6 | Active | – |
| O=C1CC(c2ccc(Cl)cc2)Oc2cc(O)cc(O)c21 (stereo not given) | – | – | – | – | 15 | – | – |
| O=C1CC(c2ccc(O)c(Cl)c2)Oc2ccc(O)cc21 (stereo not given) | – | – | – | – | 5.9 | – | – |
| O=C1CC(c2cc(Cl)c(O)c(Cl)c2)Oc2cccc(O)c21 (stereo not given) | -8.61 | -10.9 | 0.013 | -2.28 | 3.6 | Active | – |
| O=C1CC(c2cc(Cl)cc(Cl)c2)Oc2cc(O)cc(O)c21 (stereo not given) | -7.42 | -13.6 | 0.006 | -6.17 | 3.8 | Active | – |
